The nature of series [1]: Stability in water or saline at 37° C. and room temperature, 30 days, LC/MS and HPLC purity. The format is physicochemical. An excerpt:
Samples were withdrawn at a regular interval for 30 days and analyzed by LC/MS and HPLC for determination of purity and mass of the degradation product.

The next series has as its target human GLP-1R (Homo sapiens, UniProt P43220). The series can be described thus: Peptide-receptor mediated cAMP accumulation (LANCE Ultra cAMP) in CHO-K1 cells transfected with human GLP-1R. Format: cell-based. Background: Changes in cAMP serve as a functional read-out for many G protein-coupled receptors.
The target of the next series is human GCGR (Homo sapiens, UniProt P47871). Briefly: Peptide-receptor mediated cAMP accumulation (LANCE Ultra cAMP) in CHO-K1 cells transfected with human GCGR. The format is cell-based. To be noted: for hGCGR pEC50 (cAMP mean (n = 3): 11 point curve starting at 1 nM): Table 3.
Series [2] can be described thus: Solubility in water or saline at room temperature, visual inspection. Format: physicochemical. An excerpt: Samples were visually inspected for clarity of the sample, any appearance of turbidity or haziness.
A short description of series [3]: Steady state plasma concentrations of glucagon analogs given subcutaneously by osmotic minipump. Format: in vivo, rat.
Series [4] in a line: Body weight change in DIO Long Evans rats after 13 days continuous dosing by osmotic pump. To be noted: for weight loss compared to vehicle control after 13 days: DIO LE rats, single agent.
Protocol: Rats were 15-17 weeks old at the start of the study. The rats were housed 1 per cage and given ad libitum access to high fat diet (Harlan TD.95217, 4.3 kcal/g) and water, maintained on a 12 hr light/dark cycle from 5:00 AM to 5:00 PM at 21° C. and 50% relative humidity and allowed to acclimate for at least 10 days prior to the surgeries. Baseline fat mass and non-fat mass measurements were taken 3 days before the start of peptide infusion using a QMR instrument (Echo Medical Systems, Houston, TX). Body weight measurements were taken 2 times/week starting three days before the surgery. Rats were randomized according to their percent body fat mass and/or body weight into the various treatment groups (n=4-6 rats/group). […] On the day of surgery, rats were anesthetized under isoflurane and the dorsal skin surface was shaved and cleansed. Rats were injected SC with Flunexin (2.5 mg/kg). A 1-2 cm surgical incision was made between the scapulae. Using blunt dissection, a 2-3 cm subcutaneous tunnel was created into which the sterile, filled, mini-osmotic pump was introduced. The skin opening was closed with a skin staple. Each rat was implanted with either one or two osmotic pumps containing vehicle or peptide according to their treatment group. All the data are presented as mean±SEM. The data were analyzed in Excel and/or Prism (GraphPad Software, Inc., La Jolla, CA) using one-way ANOVA to compare each group to the appropriate control group.
Series [5] in a line: Clearance at intravenous infusion rate of 10 mcg/kg/hr.
Series [6] in a line: 3-hour intravenous infusion pharmacokinetics, peptide clearance (CL). To be noted: male, rat, in vivo.
Another series can be described thus: in vivo. To be noted: male, rat.
Series [7] is described as follows: Intravenous bolus injection pharmacokinetics, clearance (CL), cyclic peptide glucagon analogs. To be noted: rat, in vivo; male Wistar Han rats, single iv bolus 0.1 mg/kg; read-out: IV Bolus Clearance Kidney (CL).
Protocol: Peptides were administered as a single intravenous bolus dose to non-fasted male Wistar Han rats (n=3 per group) via jugular vein cannula. Compounds were formulated as solutions in either sterile saline, acidified saline (pH 2.0 or 4.5), or 5% DMSO in water and administered at a volume of 1.5 mL/kg and a final dose of 0.1 mg/kg. […] Plasma was prepared by centrifugation and stored at −80° C. until analysis.
Protein Precipitation: All 96-well plates were coated with a blocking agent to mitigate non-specific binding of peptides. Plasma samples (75 uL) were added to a 96-well plate containing 200 uL of 2:1 ethanol:acetonitrile containing 0.1% TFA and mixed well via aspiration. Plates were capped, vortex-mixed and centrifuged. Supernatants (215 uL) were transferred to a clean 96-well plate, evaporated to dryness under nitrogen flow and then reconstituted in 75 μL of 20% acetonitrile in water containing 0.10% formic acid.
Solid-Phase Extraction: Samples were diluted 3-fold with 5% NH4OH (aq) and loaded onto an Oasis MAX microElution plate (Waters Corp, Milford, MA) that had been pre-conditioned with 200 uL each of methanol and 5% NH4OH (aq). […]
All calibration standards were prepared in control rat plasma containing K2EDTA and protease inhibitor cocktail. […] Peptides were quantified my monitoring one or more product ions produced from a multiply charged parent ion.
For series [8] the following is noted: rat, in vivo, iv.
Protocol: Animals were anesthetized with halothane during catheterization of right saphenous vein (for peptide infusions) and right femoral artery (for blood sampling and monitoring of arterial pressure). Colonic temperature was measured and controlled. […] Arterial samples were collected every 30 min into heparinized Natelson capillaries, the plasma separated on a bench-top centrifuge and then frozen at −20° C. until assay.
The mark [9] stands for this setting: Table 3, % printed only in cells of A1-A6.
The mark [10] stands for this setting: hGLP1 pEC50 (cAMP mean (n = 3): 11 point curve starting at 1 nM, Table 3).
Where [11] appears, read: hGLP1 pEC50 (cAMP) mean (n = 9): 11 point curve starting at 500 uM, Table 2A.
Where [12] appears, read: Table 3, room temperature, read-out: Solubility in water.

“Also recorded” adds a separate entry of the source. Where two headings read alike, the source gives them in different places. Where a SMILES comes first, the peptide text is derived from it. Bridges are numbered along the chain shown (N, C = ends). [ ]: non-standard residue; d: D form. Aib = CC(C)(N)C(=O)O

What is called EC50 is the concentration at which the effect is half-maximal. Lower therefore signals a more potent agent. The solubility is the dissolved amount per volume that the medium holds.

human GLP-1R, sequence (P43220 24-463): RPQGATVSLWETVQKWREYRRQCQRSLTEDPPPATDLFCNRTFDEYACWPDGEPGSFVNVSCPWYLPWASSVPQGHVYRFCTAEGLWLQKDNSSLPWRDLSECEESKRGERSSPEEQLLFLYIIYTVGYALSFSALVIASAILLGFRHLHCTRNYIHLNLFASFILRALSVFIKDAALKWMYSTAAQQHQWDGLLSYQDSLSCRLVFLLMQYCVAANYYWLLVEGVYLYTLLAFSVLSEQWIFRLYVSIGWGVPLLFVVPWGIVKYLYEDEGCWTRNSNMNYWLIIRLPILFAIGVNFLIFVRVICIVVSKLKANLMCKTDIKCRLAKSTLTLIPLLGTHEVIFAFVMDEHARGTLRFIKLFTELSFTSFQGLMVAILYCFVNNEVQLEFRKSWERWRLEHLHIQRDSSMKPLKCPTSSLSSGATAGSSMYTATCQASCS
human GCGR, sequence (P47871 26-477): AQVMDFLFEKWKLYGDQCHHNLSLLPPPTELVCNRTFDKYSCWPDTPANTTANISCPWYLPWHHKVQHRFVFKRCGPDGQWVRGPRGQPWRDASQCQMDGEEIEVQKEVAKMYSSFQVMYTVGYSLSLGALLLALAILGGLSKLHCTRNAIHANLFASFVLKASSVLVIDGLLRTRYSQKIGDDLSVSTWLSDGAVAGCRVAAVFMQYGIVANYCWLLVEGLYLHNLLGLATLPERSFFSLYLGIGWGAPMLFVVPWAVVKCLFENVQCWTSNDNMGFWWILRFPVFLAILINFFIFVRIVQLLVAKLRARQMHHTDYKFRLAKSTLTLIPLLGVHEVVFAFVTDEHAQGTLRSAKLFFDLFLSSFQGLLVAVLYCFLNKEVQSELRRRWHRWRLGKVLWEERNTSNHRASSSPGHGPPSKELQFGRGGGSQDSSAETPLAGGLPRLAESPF

Take `CC(C)C[C@H](NC(=O)[C@H](Cc1ccc(O)cc1)NC(=O)[C@H](CCCCN)NC(=O)[C@H](CO)NC(=O)[C@H](Cc1ccc(O)cc1)NC(=O)[C@H](CC(=O)O)NC(=O)[C@H](CO)NC(=O)[C@@H](NC(=O)[C@H](Cc1ccccc1)NC(=O)[C@@H](NC(=O)CNC(=O)[C@H](Cc1c[nH]cn1)NC(=O)[C@H](CO)NC(=O)[C@@H](N)Cc1ccc(O)cc1)[C@@H](C)O)[C@@H](C)O)C(=O)N[C@@H](CC(=O)O)C(=O)NC(C)(C)C(=O)N[C@@H](CCCCN)C(=O)N[C@@H](CO)C(=O)N[C@@H](C)C(=O)N[C@@H](CCC(N)=O)C(=O)N[C@@H](CCC(=O)O)C(=O)N[C@@H](Cc1ccccc1)C(=O)N[C@H](C(=O)NC(C)(C)C(=O)N[C@@H](Cc1c[nH]c2ccccc12)C(=O)N[C@@H](CC(C)C)C(=O)N[C@@H](CCC(=O)O)C(=O)N[C@@H](CC(=O)O)C(=O)N[C@@H](CCC(=O)O)C(=O)N1CCC[C@H]1C(=O)N[C@@H](CO)C(=O)N[C@@H](CO)C(=O)NCC(=O)N[C@@H](C)C(=O)N1CCC[C@H]1C(=O)N1CCC[C@H]1C(=O)N1CCC[C@H]1C(=O)N[C@@H](CO)C(=O)O)C(C)C` [Compound A2]: the “Stability 1 mg/ml in water at 37 degC” value in series [1] (setting [9]) is >84%. The “activation profile at the human GLP-1 receptor (GLP-1R)” value on human GLP-1R (FIG. 1B) was “inactive on GLP-1R”. Further, the results for the EC50 on human GLP-1R (setting [10]), at human GLP-1R (setting [11]) and at human GCGR were 3.98 µM, 3.98 µM and 2 pM, respectively. Moreover, the “activation profile at the human glucagon receptor (GCGR)” value on human GCGR (FIG. 1A) is given as “nearly equipotent on GCGR”. For the same compound, the “hGCGR pEC50 (cAMP mean (n = 3): 11 point curve starting at 1 nM)” value (“hGCGR pEC50” for short) at human GCGR is reported as 11.7. In addition, in series [2] (setting [12]), the solubility was > 200 mg/mL. The mode of clearance entry in series [3] (FIG. 6, steady state plasma concentration vs inulin/GFR) was “consistent with being via glomerular filtration; also recorded: cleared mainly by glomerular filtration”; in [5] (FIG. 7, Table 5 values close to GFR) it was “cleared from plasma via glomerular filtration”. For the same compound, the subcutaneous bioavailability result in [3] (sc osmotic minipump, rat) is recorded as “high”. The “weight loss compared to vehicle control after 13 days” value in series [4] (0.01 mg/kg/day) is given as 3.7%; in [4] (0.03 mg/kg/day) it was 3.9%; in series [4] (0.1 mg/kg/day), 8.6%; in [4] (0.3 mg/kg/day), 23.7%. The “ED50 of weight loss” value in [4] (DIO rats, 13 days infusion, fits sharing vehicle response and common maximum (FIG. 9)) was found to be 271 µg/kg/day. In [4] (over 13 days, fits constrained to share it (FIG. 9)), the “common maximal weight loss response” value came out at 27.2%. Besides, the “CL” value in “FIGURE 2B” is given as 12.3 ± 0.6 mL/min/kg; in series [5] (Table 5, intravenous infusion rate 10 mcg/kg/hr, rat) it was 11.3 mL/min/kg. Moreover, the “clearance compared with exenatide and glucagon” value in series [5] (FIG. 7) was “less than that of exenatide and glucagon”. Moreover, the clearance in series [5] (rat, in vivo, iv, 10 mcg/kg/hr, CL mL/min/kg, Table 5, intravenous infusion rate 10 mcg/kg/hr) was 10.8 mL/min/kg; in series [6], 10.8 mL/min/kg.

As to `CC[C@H](C)[C@H](NC(=O)[C@@H](NC(=O)[C@H](Cc1ccccc1)NC(=O)[C@H](CCC(=O)O)NC(=O)[C@H](CCC(N)=O)NC(=O)[C@H](C)NC(=O)[C@H](CCCNC(=N)N)NC(=O)[C@H](CCCCN)NC(=O)C(C)(C)NC(=O)[C@H](CC(=O)O)NC(=O)[C@H](CC(C)C)NC(=O)[C@H](Cc1ccc(O)cc1)NC(=O)[C@H](CCCCN)NC(=O)[C@H](CO)NC(=O)[C@H](Cc1ccc(O)cc1)NC(=O)[C@H](CC(=O)O)NC(=O)[C@H](CO)NC(=O)[C@@H](NC(=O)[C@H](Cc1ccccc1)NC(=O)[C@@H](NC(=O)CNC(=O)[C@H](Cc1c[nH]cn1)NC(=O)[C@H](CO)NC(=O)[C@@H](N)Cc1ccc(O)cc1)[C@@H](C)O)[C@@H](C)O)C(C)C)C(=O)N[C@@H](Cc1c[nH]c2ccccc12)C(=O)N[C@@H](CC(C)C)C(=O)N[C@@H](CCC(=O)O)C(=O)N[C@@H](CC(=O)O)C(=O)N[C@@H](CCC(=O)O)C(=O)N1CCC[C@H]1C(=O)N[C@@H](CO)C(=O)N[C@@H](CO)C(=O)NCC(=O)N[C@@H](C)C(=O)N1CCC[C@H]1C(=O)N1CCC[C@H]1C(=O)N1CCC[C@H]1C(=O)N[C@@H](CO)C(=O)O` [Compound A4], in series [1] (setting [9]), the “Stability 1 mg/ml in water at 37 degC” value was >81%. Besides, the concentration giving a half-maximal response (EC50) on human GLP-1R (setting [10]) is > 10 µM; on human GLP-1R (setting [11]), > 10 µM; at human GCGR, 1.58 pM. In addition, the “hGCGR pEC50” value at human GCGR worked out at 11.8. Further, the solubility in [2] (setting [12]) was > 200 mg/mL. The “CL” value in “FIGURE 2B” turned out to be 15.0 ± 0.7 mL/min/kg. In series [6], the clearance was determined as 12.6 mL/min/kg.

`CC(C)C[C@H](NC(=O)[C@H](Cc1ccc(O)cc1)NC(=O)[C@H](CCCCN)NC(=O)[C@H](CO)NC(=O)[C@H](Cc1ccc(O)cc1)NC(=O)[C@H](CC(=O)O)NC(=O)[C@H](CO)NC(=O)[C@@H](NC(=O)[C@H](Cc1ccccc1)NC(=O)[C@@H](NC(=O)CNC(=O)[C@H](CCC(N)=O)NC(=O)[C@H](CO)NC(=O)[C@@H](N)Cc1c[nH]c2ccccc12)[C@@H](C)O)[C@@H](C)O)C(=O)N[C@@H](CC(=O)O)C(=O)NC(C)(C)C(=O)N[C@@H](CCCCN)C(=O)N[C@@H](CCCNC(=N)N)C(=O)N[C@@H](C)C(=O)N[C@@H](CCC(N)=O)C(=O)N[C@@H](CCC(=O)O)C(=O)N[C@@H](Cc1ccccc1)C(=O)N[C@H](C(=O)NC(C)(C)C(=O)N[C@@H](Cc1c[nH]c2ccccc12)C(=O)N[C@@H](CC(C)C)C(=O)N[C@@H](CCC(=O)O)C(=O)N[C@@H](CC(=O)O)C(=O)N[C@@H](CCC(=O)O)C(=O)N1CCC[C@H]1C(=O)N[C@@H](CO)C(=O)N[C@@H](CO)C(=O)NCC(=O)N[C@@H](C)C(=O)N1CCC[C@H]1C(=O)N1CCC[C@H]1C(=O)N1CCC[C@H]1C(=O)N[C@@H](CO)C(=O)O)C(C)C` [Compound A6] (H-WSQGTFTSDYSKYLD[Aib]KRAQEFV[Aib]WLEDEPSSGAPPPS-OH; N-terminus assumed): the “Stability 1 mg/ml in water at 37 degC” value in series [1] is given as >80%. In addition, the EC50 at human GLP-1R (setting [10]) is 5.01 µM; at human GLP-1R (setting [11]) it was 5.01 µM; at human GCGR (Table 2A) it was 2 pM. Also, the “hGCGR pEC50” value at human GCGR was 11.7. The compound further gave a clearance in the series “in vivo” of 12.4 mL/min/kg. Also, in series [2] (Solubility in water mg/ml), the solubility is > 200 mg/mL. The “CL” value in “FIGURE 2B” is on record as 9.2 ± 0.2 mL/min/kg.

Regarding `CC(C)C[C@H](NC(=O)[C@H](Cc1ccc(O)cc1)NC(=O)[C@H](CCCCN)NC(=O)[C@H](CO)NC(=O)[C@H](Cc1ccc(O)cc1)NC(=O)[C@H](CC(=O)O)NC(=O)[C@H](CO)NC(=O)[C@@H](NC(=O)[C@H](Cc1ccccc1)NC(=O)[C@@H](NC(=O)CNC(=O)[C@H](CCC(N)=O)NC(=O)[C@H](CO)NC(=O)[C@@H](N)Cc1ccc(O)cc1)[C@@H](C)O)[C@@H](C)O)C(=O)N[C@@H](CC(=O)O)C(=O)N[C@@H](CO)C(=O)N[C@H]1CCCCNC(=O)CC[C@@H](C(=O)N[C@@H](Cc2ccccc2)C(=O)N[C@H](C(=O)N[C@H]2CCCCNC(=O)CC[C@@H](C(=O)N[C@H](C(=O)O)[C@@H](C)O)NC(=O)[C@H](CC(=O)O)NC(=O)[C@H](CC(C)C)NC(=O)[C@H](Cc3c[nH]c4ccccc34)NC2=O)C(C)C)NC(=O)[C@H](CCC(N)=O)NC(=O)[C@H](C)NC(=O)[C@H](CCCNC(=N)N)NC1=O` [Compound A104] (H-YSQGTFTSDYSKYLDSKRAQEFVKWLDET-OH; lactam 17-21, 24-28), in series [7], the clearance is 80.7 ± 15.4 mL/min/kg.

Regarding `CC(C)C[C@H](NC(=O)[C@H](Cc1ccc(O)cc1)NC(=O)[C@H](CCCCN)NC(=O)[C@H](CO)NC(=O)[C@H](Cc1ccc(O)cc1)NC(=O)[C@H](CC(=O)O)NC(=O)[C@H](CO)NC(=O)[C@@H](NC(=O)[C@H](Cc1ccccc1)NC(=O)[C@@H](NC(=O)CNC(=O)[C@H](CCC(N)=O)NC(=O)[C@H](CO)NC(=O)[C@@H](N)Cc1ccc(O)cc1)[C@@H](C)O)[C@@H](C)O)C(=O)N[C@@H](CC(=O)O)C(=O)N[C@@H](CO)C(=O)N[C@H]1CCCCNC(=O)CC[C@@H](C(=O)N[C@@H](Cc2ccccc2)C(=O)N[C@H](C(=O)N[C@H]2CCCCNC(=O)CC[C@@H](C(=O)N[C@H](C(=O)O)[C@@H](C)O)NC(=O)[C@H](CCC(N)=O)NC(=O)[C@H](CC(C)C)NC(=O)[C@H](Cc3c[nH]c4ccccc34)NC2=O)C(C)C)NC(=O)[C@H](CCC(N)=O)NC(=O)[C@H](C)NC(=O)[C@H](CCCNC(=N)N)NC1=O` [Compound A105] (H-YSQGTFTSDYSKYLDSKRAQEFVKWLQET-OH; lactam 17-21, 24-28), the clearance in [7] came out at 67 ± 7.3 mL/min/kg.

Turning to “GLP-1: glucagon-like peptide-1; infused as GLP-1-(7-36)amide in Example 13”, the Plasma clearance rates in series [8] is reported as 34±4 to 38±3.

The record behind these values is patent US20240239861A1, “GLUCAGON-RECEPTOR SELECTIVE POLYPEPTIDES AND METHODS OF USE THEREOF” (i2O Therapeutics, Inc., priority 2016, published 2024).
